Laboratory results taken from ChEMBL document CHEMBL3351796, “Discovery of potent and selective sirtuin 2 (SIRT2) inhibitors using a fragment-based approach” (J Med Chem, 2014).

Tests used:
[1] = Apparent permeability from apical to basolateral side in MDCK2 cells at 25 uM incubated for 15 to 180 mins by HPLC method; format: ADME, cell-based, Canis lupus familiaris, MDCK-II; conditions: dog, MDCK
K562 = assay: cells; conditions: Homo sapiens, K562, 48 h
Description: Cytotoxicity against human K562 cells assessed as reduction in cell growth incubated for 48 hrs by alamar blue assay

DU-145 = assay: cells; conditions: Homo sapiens, DU-145, 48 h
Description: Cytotoxicity against human DU145 cells assessed as reduction in cell growth incubated for 48 hrs by alamar blue assay

[2] = Apparent permeability from basolateral to apical side in MDCK2 cells at 25 uM incubated for 15 to 180 mins by HPLC method; format: ADME, cell-based, Canis lupus familiaris, MDCK-II; conditions: dog, MDCK
MCF7 = assay: cells; conditions: Homo sapiens, MCF7, 48 h
Description: Cytotoxicity against human MCF7 cells assessed as reduction in cell growth incubated for 48 hrs by alamar blue assay

[3] = target: T1, NAD-dependent protein deacetylase sirtuin-2 (Homo sapiens, UniProt Q8IXJ6); assay: Inhibition of full length human SIRT2 expressed in Escherichia coli BL21 (DE3) cells using fluorogenic 7-amino-4-methylcoumarin (AMC)-labeled peptide by fluorescence assay
T1 sequence (Q8IXJ6 whole entry): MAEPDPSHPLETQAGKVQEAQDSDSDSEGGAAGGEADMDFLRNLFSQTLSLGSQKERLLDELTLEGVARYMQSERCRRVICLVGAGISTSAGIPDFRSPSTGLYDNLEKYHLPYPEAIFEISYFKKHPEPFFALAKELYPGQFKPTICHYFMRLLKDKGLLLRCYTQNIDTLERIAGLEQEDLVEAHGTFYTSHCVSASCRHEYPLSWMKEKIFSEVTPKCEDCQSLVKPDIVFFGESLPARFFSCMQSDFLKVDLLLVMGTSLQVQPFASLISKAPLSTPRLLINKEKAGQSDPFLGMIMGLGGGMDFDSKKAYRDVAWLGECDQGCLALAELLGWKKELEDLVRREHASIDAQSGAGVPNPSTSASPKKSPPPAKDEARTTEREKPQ

## NC(=O)c1cncc(Oc2cccc3c(NC(=O)c4ccccc4)cccc23)c1
[1]
  Papp A→B at 25 µM: 3.84 ×10⁻⁶ cm/s
K562
  CC50: 26.2 µM
DU-145
  CC50: 33.3 µM
[2]
  Papp B→A at 25 µM: 4.35 ×10⁻⁶ cm/s
MCF7
  CC50: 30.6 µM
[3]
  IC50: 0.0483 µM
